Test results as given in ChEMBL document CHEMBL1201862, “PubChem BioAssay data set” (2004).
Active and inactive are the calls of the source.

Assays:
[1] = molecular target: Cytochrome P450 2C19 (Homo sapiens, UniProt P33261); assay: Cytochrome panel assay with activity outcomes. Panel member name: p450-cyp2c19 Compounds with AC50 equal or less than 10 uM are considered active; format: functional
[2] = molecular target: Cytochrome P450 2D6 (Homo sapiens, UniProt P10635);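 note: CYP2D6 member of a cytochrome P450 panel assay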
Cytochrome P450 2D6, sequence (P10635 whole entry): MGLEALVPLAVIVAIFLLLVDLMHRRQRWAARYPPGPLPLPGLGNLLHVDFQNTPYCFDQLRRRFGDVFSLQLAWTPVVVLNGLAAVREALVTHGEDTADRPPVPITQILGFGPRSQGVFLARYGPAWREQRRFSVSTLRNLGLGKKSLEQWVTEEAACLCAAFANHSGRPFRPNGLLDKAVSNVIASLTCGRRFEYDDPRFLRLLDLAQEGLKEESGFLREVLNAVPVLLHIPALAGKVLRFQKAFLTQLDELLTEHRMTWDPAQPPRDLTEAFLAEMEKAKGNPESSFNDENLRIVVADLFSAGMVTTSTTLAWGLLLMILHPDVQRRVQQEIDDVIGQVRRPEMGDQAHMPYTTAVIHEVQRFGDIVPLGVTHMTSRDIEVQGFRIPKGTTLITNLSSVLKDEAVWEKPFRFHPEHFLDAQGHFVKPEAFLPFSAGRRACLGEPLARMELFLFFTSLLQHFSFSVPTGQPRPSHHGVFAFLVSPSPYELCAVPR

[3] = molecular target: T1, Heat shock factor protein 1 (Mus musculus, UniProt P38532); assay: inhibition of MG132-induced HSE-luciferase signal, confirmation, cell-based, NIH3T3, luminescence, dose retest (AID 2382); format: functional;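 note: NIH3T3 fibroblasts with HSF1-driven luciferase reporter stressed by proteasome inhibitor MG132; luminescence from HSF1-driven luciferase expression after 8 hours of MG132 stress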
T1 sequence (P38532 whole entry): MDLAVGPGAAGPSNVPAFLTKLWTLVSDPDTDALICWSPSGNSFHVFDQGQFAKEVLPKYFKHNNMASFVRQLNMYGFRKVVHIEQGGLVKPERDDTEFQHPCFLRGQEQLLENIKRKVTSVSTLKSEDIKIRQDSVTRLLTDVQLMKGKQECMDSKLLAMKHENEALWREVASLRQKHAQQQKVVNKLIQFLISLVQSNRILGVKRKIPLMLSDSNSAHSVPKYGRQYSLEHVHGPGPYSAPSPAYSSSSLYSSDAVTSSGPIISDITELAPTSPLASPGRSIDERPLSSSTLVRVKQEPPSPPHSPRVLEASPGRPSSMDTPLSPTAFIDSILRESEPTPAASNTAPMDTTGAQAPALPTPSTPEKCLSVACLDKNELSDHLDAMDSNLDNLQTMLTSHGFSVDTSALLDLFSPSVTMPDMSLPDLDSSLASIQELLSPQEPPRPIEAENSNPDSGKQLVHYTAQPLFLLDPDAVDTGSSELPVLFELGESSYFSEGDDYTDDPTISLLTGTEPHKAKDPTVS

[4] = cytotoxicity toward NIH3T3 fibroblasts, dose response, counter-screen, cell-based, ATP luminescence, mouse fibroblasts (AID 2010); format: functional;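 note: cells exposed to compound for about 90 hours before reading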
[5] = inhibitors of intracellular T. cruzi replication, confirmation, NIH3T3 host cells, beta-gal luminescence (AID 2044); format: functional, cell-based;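 note: intracellular parasites grown in NIH/3T3 mouse fibroblasts as host cells; luminescent beta-galactosidase reporter signal from transgenic T. cruzi replicating inside host cells; inhibitors lower the luminescence signal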
[6] = growth suppression of PTEN-null colon cells, dose response, cell-based, HCT116 PTEN knockout (AID 1047); format: functional;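 note: HCT116 colon tumor cells with PTEN knocked out; cells exposed to compound for 60 hours before readout; potency for loss of cell viability measured by luminescence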
[7] = growth suppression of beta-catenin-knockout colon cells, dose response, cell-based, HCT116, human colon tumor (AID 1045); format: functional;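 note: HCT116 colon tumor cells with beta catenin knocked out; cells exposed to compound for 60 hours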
[8] = molecular target: T2, RNA-binding protein pos-1 (Caenorhabditis elegans, UniProt G5EF15); assay: inhibitors of POS-1/mex-3 RNA binding, dose response, biochemical, fluorescence polarization (AID 1964);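 note: purified POS-1 fused to maltose binding protein made in E. coli; potency of compounds blocking POS-1 binding to fluorescent RNA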
T2 sequence (G5EF15 whole entry): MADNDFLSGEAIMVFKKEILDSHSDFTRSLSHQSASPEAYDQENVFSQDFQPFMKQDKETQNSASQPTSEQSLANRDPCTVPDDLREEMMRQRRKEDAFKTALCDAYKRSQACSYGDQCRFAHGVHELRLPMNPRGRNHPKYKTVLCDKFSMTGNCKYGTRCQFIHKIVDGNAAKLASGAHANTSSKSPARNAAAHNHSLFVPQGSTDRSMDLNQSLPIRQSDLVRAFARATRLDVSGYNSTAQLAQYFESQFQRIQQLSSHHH

[9] = molecular target: Cytochrome P450 2C9 (Homo sapiens, UniProt P11712)
Cytochrome P450 2C9, sequence (P11712 whole entry): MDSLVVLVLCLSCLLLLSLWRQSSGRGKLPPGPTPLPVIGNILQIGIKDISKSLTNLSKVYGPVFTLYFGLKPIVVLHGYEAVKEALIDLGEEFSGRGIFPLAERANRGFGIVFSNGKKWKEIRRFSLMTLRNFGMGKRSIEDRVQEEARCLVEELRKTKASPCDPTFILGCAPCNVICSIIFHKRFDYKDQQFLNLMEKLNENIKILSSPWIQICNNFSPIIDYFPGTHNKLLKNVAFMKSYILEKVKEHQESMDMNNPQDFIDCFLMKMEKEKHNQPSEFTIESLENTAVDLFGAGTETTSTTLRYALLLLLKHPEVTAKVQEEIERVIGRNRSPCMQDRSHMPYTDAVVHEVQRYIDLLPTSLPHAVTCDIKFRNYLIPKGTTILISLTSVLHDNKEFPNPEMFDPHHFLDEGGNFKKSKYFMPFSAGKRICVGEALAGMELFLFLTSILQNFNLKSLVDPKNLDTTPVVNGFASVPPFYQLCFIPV

[10] = molecular target: T3, Zinc finger protein mex-5 (Caenorhabditis elegans, UniProt Q9XUB2); assay: MEX-5/TCR-2 RNA interaction inhibitors, dose response, biochemical, C. elegans, fluorescence polarization (AID 1960)
T3 sequence (Q9XUB2 whole entry): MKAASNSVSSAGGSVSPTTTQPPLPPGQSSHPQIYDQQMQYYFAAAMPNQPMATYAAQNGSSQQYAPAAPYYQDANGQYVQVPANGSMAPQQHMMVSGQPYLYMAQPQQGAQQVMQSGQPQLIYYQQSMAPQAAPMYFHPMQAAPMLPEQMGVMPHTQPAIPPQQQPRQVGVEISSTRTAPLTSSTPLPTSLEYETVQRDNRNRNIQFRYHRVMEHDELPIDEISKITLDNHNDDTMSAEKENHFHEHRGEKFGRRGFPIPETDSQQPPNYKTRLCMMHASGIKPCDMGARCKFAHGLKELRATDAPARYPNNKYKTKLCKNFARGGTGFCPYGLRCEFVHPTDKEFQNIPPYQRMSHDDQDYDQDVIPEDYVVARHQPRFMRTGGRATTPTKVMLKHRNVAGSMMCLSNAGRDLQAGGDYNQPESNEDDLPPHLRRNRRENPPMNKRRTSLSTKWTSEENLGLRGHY

[11] = tested on: Streptococcus sp. 'group A'; assay: growth inhibition of control SK(-) GAS strain, dose response, counter-screen for streptokinase expression inhibitor project, luminescence, kanamycin, BacTiterGlo, confirmation (AID 1900); format: functional, organism-based
[12] = tested on: Streptococcus; assay: Group A Streptococcus viability loss, dose response, counter-screen for streptokinase expression inhibitor project, luminescence, BacTiterGlo (AID 1915); format: functional, organism-based;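 note: potency for reduction of bacterial viability or growth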

Cytochrome P450 2C19, sequence (P33261 whole entry): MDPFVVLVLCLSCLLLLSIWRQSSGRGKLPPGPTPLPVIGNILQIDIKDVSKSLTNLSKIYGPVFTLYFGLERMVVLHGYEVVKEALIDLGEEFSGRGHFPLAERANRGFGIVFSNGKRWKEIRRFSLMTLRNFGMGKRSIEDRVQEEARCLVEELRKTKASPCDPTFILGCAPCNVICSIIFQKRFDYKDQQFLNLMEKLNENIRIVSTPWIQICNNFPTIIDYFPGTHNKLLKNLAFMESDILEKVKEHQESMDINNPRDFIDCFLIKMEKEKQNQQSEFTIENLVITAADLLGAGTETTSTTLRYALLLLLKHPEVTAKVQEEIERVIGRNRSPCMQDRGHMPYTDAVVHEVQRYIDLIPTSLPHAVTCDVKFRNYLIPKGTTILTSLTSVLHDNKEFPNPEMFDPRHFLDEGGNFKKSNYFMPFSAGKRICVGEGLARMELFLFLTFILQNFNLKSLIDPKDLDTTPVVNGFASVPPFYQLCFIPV

Ic1cncc(OC[C@@H]2CCN2)c1
AC50 ([1]; read-out: AC50): 15.8 µM (inconclusive)
AC50 [2]: 39.8 µM (inconclusive)

COc1cc(NC(=O)c2cccs2)c(C(=O)OCC(=O)c2cc(C)n(-c3ccc(F)cc3)c2C)cc1OC
EC50 [3]: 4.87 µM (active)

CCCCCCC1CC(C)(C(=O)CNc2nncs2)OC1=O (stereo not drawn)
EC50 [4]: 23.8 µM (active)
EC50 [5]: 1.3 µM (active)

O=C(NC1CCCCC1)C(c1ccc(F)cc1)N(C(=O)Cc1ccsc1)c1ccc(F)cc1 (stereo not drawn)
EC50 [4]: > 60 µM (not active)
EC50 [5]: > 60 µM (not active)

O=C(/C(=C(\[O-])c1ccccc1)[n+]1ccc2ccccc2c1)c1ccc([N+](=O)[O-])cc1
EC50 [3]: > 195 µM (not active)

CC(=O)Nc1nc(-c2ccccc2)nc(-c2ccccc2OC(C)=O)n1
EC50 [6]: 73.1 µM (active)
EC50 [7]: 118 µM (active)

CC1CCN(C(=O)CSc2nc(O)c3cnn(-c4ccc(Cl)cc4)c3n2)CC1
EC50 [3]: > 195 µM (not active)

Cc1ccc(CCNC(=O)CN2C(=O)COc3ccccc32)cc1
EC50 [4]: > 60 µM (not active)
EC50 [5]: 16.4 µM (active)

CN1CCN(c2ccc(S(=O)(=O)N3CCCCC3)cc2NC(=O)c2ccc(C#N)cc2)CC1
EC50 [4]: > 60 µM (not active)
EC50 [5]: 1.14 µM (active)

C#CCN1C(=O)C(O)(CC(=O)c2ccc3c(c2)OCCO3)c2ccccc21 (stereo not drawn)
EC50 [6]: 29.7 µM (active)
EC50 [7]: 29.7 µM (active)

Cc1noc(C)c1-c1nc(NCc2cccs2)c2ccccc2n1
AC50 [2]: 3.98 µM (inconclusive)

COc1ccc(CNc2cc(-c3cccnc3)ncn2)c(OC)c1
AC50 [2]: 39.8 µM (inconclusive)

CC(C)(C)N1[C@@H](CC(=O)O)c2cc(C(F)(F)F)ccc2S1(=O)=O
EC50 [3]: > 195 µM (not active)

CC(C)c1ccc(/C=C/C(=O)Nc2nc3ccc([N+](=O)[O-])cc3s2)cc1
EC50 [6]: 23.3 µM (active)
EC50 [7]: 41.3 µM (active)

Cc1ccc(NC(=O)CCN2C(=O)c3ccncc3C2=O)cc1
AC50 ([1]; read-out: AC50): 39.8 µM (inconclusive)

CCc1ccccc1N1C(=O)/C(=C/c2ccc(N3CCN(C)CC3)o2)C(=O)NC1=S
EC50 [8]: > 300 µM (inconclusive)

CCCCCCn1c(N)c(C(=O)NCCN2CCOCC2)c2nc3ccccc3nc21
EC50 [6]: 17.7 µM (active)
EC50 [7]: 19.7 µM (active)

CC(C)OCCCn1c(=S)[nH]c2ncccc2c1=O
AC50 [9]: 1.78 µM (inconclusive)

CCOC(=O)C1=NNC2(c3ccc(Cl)cc3)C(=O)N(c3cc(C)cc(C)c3)C(=O)C12 (stereo not drawn)
AC50 ([1]; read-out: AC50): 2.51 µM (inconclusive)

CC(=O)C1=C(c2ccccc2)NC(=O)NC1c1ccc(O)c(O)c1 (stereo not drawn)
EC50 [10]: 43.4 µM (active)
EC50 [8]: > 300 µM (not active)

O=C(NCc1ccccc1)C1=C[C@@H](c2ccc(C(F)(F)F)cc2)C[C@@H](OCc2ccc(CO)cc2)O1
EC50 [4]: > 60 µM (not active)
EC50 [5]: 0.669 µM (active)

COc1ccc(CCn2c(=N)c(C(=O)NC3CCCCC3)cc3c(=O)n4ccccc4nc32)cc1
EC50 [10]: 8.45 µM (inconclusive)
EC50 [8]: 21.6 µM (active)

CCCCCCCC(=O)NNC(=O)c1c(O)c2ccccc2n(CC)c1=O
EC50 [11]: 2.31 µM (active)
EC50 [12]: 6.17 µM (active)

COc1ccc(Cl)cc1C(=O)C1CCCN(Cc2cnc(N3CCOCC3)s2)C1 (stereo not drawn)
EC50 [4]: > 60 µM (not active)
EC50 [5]: 0.135 µM (active)

O=C(/C=C/c1ccco1)NC(=S)NNC(=O)c1ccco1
EC50 [10]: 15.7 µM (active)
EC50 [8]: 98.1 µM (active)

Cc1ncn(-c2ccccc2O)c1C
AC50 [2]: 3.16 µM (inconclusive)

Cc1ccc(C)c(-c2cc(C(=O)NCc3cccs3)c3ccccc3n2)c1
AC50 ([1]; read-out: AC50): 3.55 µM (inconclusive)
AC50 [2]: 14.1 µM (inconclusive)

Cc1cc(N2C(=O)C(O)=C(C(=O)c3ccco3)C2c2ccc(O)cc2)no1 (stereo not drawn)
AC50 ([1]; read-out: AC50): 35.5 µM (inconclusive)

Cc1ccc(-n2c(N)c(C(=O)Nc3c(C)n(C)n(-c4ccccc4)c3=O)c3nc4ccccc4nc32)cc1C
EC50 [6]: 8.61 µM (active)
EC50 [7]: 11.5 µM (active)

CC(C)=C1C2CCC1C1C(=O)N(c3ccc(C)c(C)c3)C(=O)C21 (stereo not drawn)
EC50 [3]: > 195 µM (not active)

COc1ccc(CNC(=O)C(=O)c2cn(CC(=O)N3CCOCC3)c3ccccc23)cc1
EC50 [3]: > 195 µM (not active)

Cc1ccc(-c2c[n+](CC(=O)c3ccc(Br)cc3)c3n2CCCCC3)cc1
EC50 [4]: > 60 µM (not active)
EC50 [5]: 0.465 µM (active)

COCc1cc(C)nc(SCC(=O)Nc2cc(C(F)(F)F)ccc2N2CCOCC2)c1C#N
EC50 [4]: > 60 µM (not active)
EC50 [5]: 0.807 µM (active)

O=C(Nc1ccccc1C(=O)Nc1nnc(C(F)(F)F)s1)c1ccccc1Cl
EC50 [11]: 1.36 µM (active)
EC50 [12]: 3.2 µM (active)

Oc1cccc2ccc(/C=C/c3ccc(Br)s3)nc12
EC50 [11]: 2.56 µM (active)
EC50 [12]: 4.33 µM (active)

Cc1cc(C)nc(NN2C(=O)C=CC2=O)n1
EC50 [10]: 40.8 µM (active)
EC50 [8]: > 300 µM (not active)

COc1cccc(Cn2c(=O)cnc3cnc(Nc4cccc(OC)c4)nc32)c1
AC50 [2]: 39.8 µM (inconclusive)

Cc1ccc(N2CC(C(=O)Nc3nnc(SCCN4CCOCC4)s3)CC2=O)cc1 (stereo not drawn)
EC50 [3]: > 195 µM (not active)

COc1ccc(NC(=O)CN(C)S(=O)(=O)c2ccc3c(c2)CCC(=O)N3)c(OC)c1
EC50 [3]: > 195 µM (not active)

CN(CCOc1ccccc1)CC(=O)Nc1ccc(Cl)c(S(=O)(=O)N(C)C)c1
EC50 [4]: > 60 µM (not active)
EC50 [5]: 0.503 µM (active)

C=CCN1C(=O)NC(=O)/C(=C(/CC)NC2CC2)C1=O
AC50 ([1]; read-out: AC50): 22.4 µM (inconclusive)
AC50 [2]: 1.12 µM (inconclusive)

NS(=O)(=O)c1ccc2c(c1)C1C=CCC1C(C1CC=CCC1)N2 (stereo not drawn)
EC50 [10]: 20.7 µM (inconclusive)
EC50 [8]: 18.3 µM (active)

Cc1c(C(=O)O)cccc1-n1c(C)cc(/C=C(/C#N)C(=O)NCc2ccccc2)c1C
EC50 [10]: > 300 µM (not active)
EC50 [8]: > 300 µM (not active)

CCOc1ccc2ccccc2c1C1NC(=O)N(C)C(C)=C1C(=O)OCCOC (stereo not drawn)
EC50 [10]: > 300 µM (not active)
EC50 [8]: > 300 µM (not active)

COC(=O)N1CCC2(CCN(C(=O)Nc3ccccc3)CC2)CC1
AC50 ([1]; read-out: AC50): 20 µM (inconclusive)

COc1ccc(CNc2ccc3c(c2)CCC3)cc1OC
EC50 [4]: > 30 µM (not active)
EC50 [5]: 15.4 µM (active)

NCCNc1ncnc2ccc(Cl)cc12
AC50 [2]: 3.16 µM (inconclusive)

CN(C)CCCn1c2ccccc2c2cnccc21
AC50 [2]: 3.98 µM (inconclusive)

Fc1ccc(SCCc2ccncc2)cc1
EC50 [4]: > 30 µM (not active)
EC50 [5]: 1.27 µM (active)

CCC(C)NCCOCCOc1ccc(Br)cc1 (stereo not drawn)
EC50 [4]: > 60 µM (not active)
EC50 [5]: 0.106 µM (active)

COc1ccc(OC)c(Nc2nc(-c3sc(NC(=O)C(C)(C)C)nc3C)cs2)c1
EC50 [3]: > 195 µM (not active)

C(=N\n1cncn1)/c1ccc(N2CCOCC2)cc1
EC50 [3]: > 195 µM (not active)

CN(CCCNC(=O)c1ccc(/C=N/O)nc1)CCCN(C)Cc1ccccc1
AC50 [1]: inconclusive

FC(F)(F)COc1nc(N/N=C/c2cccnc2)nc(N2CCCCC2c2ccccn2)n1 (stereo not drawn)
EC50 [4]: > 60 µM (not active)
EC50 [5]: 2.37 µM (active)

C/C(=N\Nc1nncc2ccccc12)c1ccc(Cl)c([N+](=O)[O-])c1
EC50 [3]: > 195 µM (not active)

Cc1nn(-c2ccccn2)c2c1C(c1ccccc1Cl)C1=C(N2)c2ccccc2C1=O (stereo not drawn)
EC50 [6]: 24.7 µM (active)
EC50 [7]: 24.9 µM (active)
